Measured values as given in paper PMC8967716, “Inhibition of calcium-triggered secretion by hydrocarbon-stapled peptides” (Nature, 2022).
“And” between values parts separate entries of the source, which are not always exact repeats. Equal values may be shown once. Positions of bridges follow the written chain, without caps; N, C: chain ends. Non-standard residues stand in square brackets, D forms with d. Residues, ends and D or L forms follow the SMILES beside them. S5 = C=CCCC[C@](C)(N)C(=O)O

Target: T1, neuronal SNAREs and Syt1(QM) (Rattus norvegicus, UniProt P21707, E295A/R281A/R398A/R399A/Y338W)
T1 construct: made in house
T1 sequence (P21707 whole entry R281A/E295A/Y338W/R398A/R399A): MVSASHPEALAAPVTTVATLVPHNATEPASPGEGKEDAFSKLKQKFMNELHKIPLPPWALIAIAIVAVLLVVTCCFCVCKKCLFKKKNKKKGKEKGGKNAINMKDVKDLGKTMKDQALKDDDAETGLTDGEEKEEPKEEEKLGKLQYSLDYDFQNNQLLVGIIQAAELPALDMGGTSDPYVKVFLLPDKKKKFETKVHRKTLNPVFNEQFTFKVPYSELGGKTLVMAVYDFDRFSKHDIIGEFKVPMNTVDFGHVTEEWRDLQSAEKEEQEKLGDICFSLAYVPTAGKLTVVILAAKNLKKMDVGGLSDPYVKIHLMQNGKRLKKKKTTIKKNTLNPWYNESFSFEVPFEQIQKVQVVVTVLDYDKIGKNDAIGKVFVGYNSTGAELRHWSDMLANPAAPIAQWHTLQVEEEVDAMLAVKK
Test: Single-vesicle content mixing assay, neuronal SNAREs and Syt1(QM)
Type: biochemical

[1] = 10 μM SP9, each value one repeat experiment
[2] = 500 μM Ca2+, 10 μM SP9, each value one repeat experiment

## CC[C@H](C)[C@H](NC(=O)[C@]1(C)CCCC=CCCC[C@](C)(NC(=O)[C@H](CCC(=O)O)NC(=O)[C@H](CCC(=O)O)NC(C)=O)C(=O)N[C@@H](CCCCN)C(=O)N[C@@H](CC(=O)O)C(=O)N[C@@H](C)C(=O)N1)C(=O)N[C@@H](CCCNC(=N)N)C(=O)N[C@@]1(C)CCCC=CCCC[C@@](C)(C(=O)N[C@@H](CC(=O)O)C(=O)N[C@@H](CCC(=O)O)C(=O)N[C@@H](CCC(N)=O)C(=O)N[C@@H](CS)C(N)=O)NC(=O)[C@H](CCSC)NC(=O)[C@H](C(C)C)NC(=O)[C@H](CC(C)C)NC1=O [SP9] (Ac-EE[S5]KDA[S5]IR[S5]LVM[S5]DEQC-NH2; staple 3-7, 10-14)
[1]
  Ca2+ independent fusion per sec (average probability): 0.0007051 and 0.0008431 and 0.0008917
  Vesicle association: 67 and 40 and 70
[2]
  Ca2+ triggered fusion accumulative probability (within 1 min): 0.0513 and 0.04654 and 0.06303
  Ca2+ triggered fusion amplitude (first 1-sec time bin): 0.004413 and 0.005288 and 0.004669
SP9 vs no peptide
  effect on Ca2+-independent or Ca2+-triggered fusion with Syt1(QM): little effect
